A word on the IC50: it is the point on the concentration scale where inhibition reaches its midpoint.

Experimental findings from patent publication US6855730B2, “3-methylidenyl-2-indolinone modulators of protein kinase” (Sugen, Inc., priority 1998, dated 2005) are described below.

The structures appear in SMILES notation.

The assay deals with T1, human flk-1 (Homo sapiens, UniProt P35968).
T1 construct: host or cells: Flk-1/NIH cells (NIH fibroblasts)
T1 sequence (P35968 20-1356): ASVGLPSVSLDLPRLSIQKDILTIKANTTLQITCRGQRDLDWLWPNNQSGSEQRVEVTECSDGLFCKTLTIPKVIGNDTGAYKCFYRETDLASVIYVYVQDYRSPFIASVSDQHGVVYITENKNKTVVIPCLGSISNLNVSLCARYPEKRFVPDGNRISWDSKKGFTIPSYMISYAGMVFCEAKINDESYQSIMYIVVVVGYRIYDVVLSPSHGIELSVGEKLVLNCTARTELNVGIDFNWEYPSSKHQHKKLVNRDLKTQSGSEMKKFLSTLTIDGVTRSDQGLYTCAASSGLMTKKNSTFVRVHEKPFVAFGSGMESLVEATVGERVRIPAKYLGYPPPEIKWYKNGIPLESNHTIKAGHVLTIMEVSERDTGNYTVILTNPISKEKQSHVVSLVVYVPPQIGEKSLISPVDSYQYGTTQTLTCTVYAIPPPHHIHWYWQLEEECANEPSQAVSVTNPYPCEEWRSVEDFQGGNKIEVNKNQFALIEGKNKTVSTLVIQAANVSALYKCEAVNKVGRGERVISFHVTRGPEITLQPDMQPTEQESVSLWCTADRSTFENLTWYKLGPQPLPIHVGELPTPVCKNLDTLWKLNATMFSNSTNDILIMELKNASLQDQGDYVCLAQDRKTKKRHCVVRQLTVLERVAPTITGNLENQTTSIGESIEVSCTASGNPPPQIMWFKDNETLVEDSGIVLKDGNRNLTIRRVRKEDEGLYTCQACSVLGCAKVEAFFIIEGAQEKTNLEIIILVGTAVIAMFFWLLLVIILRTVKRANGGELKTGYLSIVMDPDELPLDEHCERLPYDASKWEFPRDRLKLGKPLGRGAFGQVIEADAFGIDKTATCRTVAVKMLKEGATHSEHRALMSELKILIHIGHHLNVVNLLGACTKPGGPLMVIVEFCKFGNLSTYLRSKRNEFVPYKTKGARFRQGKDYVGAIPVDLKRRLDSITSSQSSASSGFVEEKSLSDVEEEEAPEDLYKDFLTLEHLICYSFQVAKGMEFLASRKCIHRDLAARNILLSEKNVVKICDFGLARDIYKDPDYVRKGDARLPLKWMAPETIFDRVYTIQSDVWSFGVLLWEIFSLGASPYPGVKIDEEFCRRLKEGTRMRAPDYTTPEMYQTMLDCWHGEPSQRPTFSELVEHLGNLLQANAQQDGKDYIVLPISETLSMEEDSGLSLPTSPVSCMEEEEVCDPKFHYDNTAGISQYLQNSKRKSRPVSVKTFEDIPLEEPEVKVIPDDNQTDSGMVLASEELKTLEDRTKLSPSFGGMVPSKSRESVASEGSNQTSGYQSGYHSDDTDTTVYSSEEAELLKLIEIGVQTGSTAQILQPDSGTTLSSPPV
Put plainly: Biochemical FLK-1 assay (flk-1 autophosphorylation ELISA). The note with it: read-out: bio FLK1 IC50 (μM) % if inhibition at 100. The method, boiled down:
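Flk-1 from lysates of NIH fibroblasts over-expressing human flk-1 (50 μg/well) was captured on anti-flk-1 antibody-coated plates, then autophosphorylated with test compounds and ATP (0.3 mM working solution) for 60 min at room temperature before EDTA stop. Phosphotyrosine was detected with biotinylated 4G10, avidin-biotin peroxidase and TMB at 450 nm.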
A general note: An ELISA detects its analyte on a solid surface through an enzyme-linked reagent.
`COc1cccc(-c2ccc3c(c2)NC(=O)/C3=C\c2[nH]c3c(c2CCC(=O)O)CCCC3)c1` [Example 204, 3-{2-[6-(3-Methoxyphenyl)-2-oxo-1,2-dihydro-indol-3-ylidenemethyl]-4,5,6,7-tetrahydro-1H-indol-3-yl}-propionic acid]: the 50% inhibitory concentration (IC50) worked out at 0.36 µM.
For the compound `O=C1Nc2ccccc2/C1=C/c1[nH]c2c(c1CCC(=O)N1CCOCC1)CCCC2` [Example 200, 3-[3-(3-Morpholin-4-yl-3-oxopropyl)-4,5,6,7-tetrahydro-1H-indol-2-ylmethylene]-1,3-dihydroindol-2-one], the IC50 is 0.97 µM.
Then `COc1ccc2c(c1)NC(=O)/C2=C\c1[nH]cc(C)c1CCC(=O)O` [Example 217, 3-[2-(6-Methoxy-2-oxo-1,2-dihydroindol-3-ylidenemethyl)-4-methyl-1H-pyrrol-3-yl]-propionic acid], with 1.47 µM; and `Cc1c[nH]c(C=C2C(=O)Nc3cc(Cl)ccc32)c1CCC(=O)O` [Example 219, 3-[2-(6-Chloro-2-oxo-1,2-dihydroindol-3-ylidenemethyl)-4-methyl-1H-pyrrol-3-yl]-propionic acid], with 0.19 µM; and `O=C(O)CCc1c(/C=C2\C(=O)Nc3ccccc32)[nH]c2c1CCCC2` [Example 190, 3-[2-(2-Oxo-1,2-dihydro-indol-3-ylidenemethyl)-4,5,6,7-tetrahydro-1H-indol-3-yl]-propionic acid], with 0.06 µM.
For `CN(C)C(=O)CCc1c(/C=C2\C(=O)Nc3ccccc32)[nH]c2c1CCCC2` [Example 197, N,N-Dimethyl-3-[2-(2-oxo-1,2-dihydroindol-3-ylidenemethyl)-4,5,6,7-tetrahydro-1H-indol-3-yl]-propionamide], the half-maximal inhibitory concentration (IC50) was 2.1 µM.
